Measured values as given in paper PMC2229628 (The Journal of Endocrinology, 2008).

Target: T1, human GnRH receptor (hGnRHR) (Homo sapiens, UniProt P30968)
T1 sequence (P30968 1-328): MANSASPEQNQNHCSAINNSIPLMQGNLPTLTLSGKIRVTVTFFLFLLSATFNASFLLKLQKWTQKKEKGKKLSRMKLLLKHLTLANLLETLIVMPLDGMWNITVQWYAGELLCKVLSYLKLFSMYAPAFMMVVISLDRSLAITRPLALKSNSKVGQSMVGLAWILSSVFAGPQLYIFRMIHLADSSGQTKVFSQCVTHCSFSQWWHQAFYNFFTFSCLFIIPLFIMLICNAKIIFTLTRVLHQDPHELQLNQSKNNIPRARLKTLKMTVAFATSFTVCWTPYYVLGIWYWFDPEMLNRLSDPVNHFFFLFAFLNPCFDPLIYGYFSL
Format: cell-based

Cc1cc(C)cc(-c2[nH]c3ccc(C(C)(C)C(=O)N4CC5CCC4CC5)cc3c2[C@H](C)CNCCc2ccncc2)c1 [IN3, (2S)-2-[5-[2-(2-axabicyclo[2.2.2]oct-2-yl)-1,1-dimethy-2-oxoethyl]-2-(3,5-dimethylphenyl)-1H-indol-3-yl]-N-(2-pyridin-4-ylethyl)propan-1-amine]
EC50: 3–5×10^−8 M
